Laboratory results taken from PubChem BioAssay AID292 (DTP/NCI, 2004).
“And” between values parts separate entries of the source, which are not always exact repeats. Identical values can stand only once. Inconclusive results and toxic doses are left out.

Test system: B6C3F1 mice, ip Sarcoma M5076, median survival T/C
Assay: NCI In Vivo Anticancer Drug Screen. Data for tumor model Sarcoma M5076 (intraperitoneal) in B6C3F1 mice
Details: endpoint: median survival time, schedule: Q04DX004 (ip), higher = longer survival
Outline: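 Survival measured in treated (T) and vehicle control (C) mice with transplantable tumour; result given as T divided by C.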

[1] = dose: 25.0 mg/kg/injection, vehicle: saline with Tween-80
[2] = dose: 50.0 mg/kg/injection, vehicle: saline with Tween-80
[3] = dose: 100.0 mg/kg/injection, vehicle: saline with Tween-80
[4] = dose: 200.0 mg/kg/injection, vehicle: saline with Tween-80
[5] = dose: 75.0 mg/kg/injection, vehicle: Klucel (hydroxypropylcellulose) (HPC)
[6] = dose: 150.0 mg/kg/injection, vehicle: Klucel (hydroxypropylcellulose) (HPC)
[7] = dose: 300.0 mg/kg/injection, vehicle: Klucel (hydroxypropylcellulose) (HPC)
[8] = dose: 25.0 mg/kg/injection, vehicle: Klucel (hydroxypropylcellulose) (HPC)
[9] = dose: 50.0 mg/kg/injection, vehicle: Klucel (hydroxypropylcellulose) (HPC)
[10] = dose: 100.0 mg/kg/injection, vehicle: Klucel (hydroxypropylcellulose) (HPC)
[11] = dose: 200.0 mg/kg/injection, vehicle: Klucel (hydroxypropylcellulose) (HPC)
[12] = dose: 50.0 mg/kg/injection, vehicle: distilled water + Tween-80
[13] = dose: 100.0 mg/kg/injection, vehicle: distilled water + Tween-80
[14] = dose: 6.25 mg/kg/injection, vehicle: water
[15] = dose: 12.5 mg/kg/injection, vehicle: water
[16] = dose: 400.0 mg/kg/injection, vehicle: Klucel (hydroxypropylcellulose) (HPC)
[17] = dose: 50.0 mg/kg/injection, vehicle: water
[18] = dose: 100.0 mg/kg/injection, vehicle: water

## NC(CCC(=O)NC(CS)C(=O)NCC(=O)O)C(=O)O (stereo not given)
dose: 75.0 mg/kg/injection, vehicle: saline
  T/C: 110 % of control
dose: 150.0 mg/kg/injection, vehicle: saline
  T/C: 100 % of control
dose: 300.0 mg/kg/injection, vehicle: saline
  T/C: 102 % of control
dose: 600.0 mg/kg/injection, vehicle: saline
  T/C: 90 % of control
dose: 1200.0 mg/kg/injection, vehicle: saline
  T/C: 90 % of control

## CC(C)c1ccc(C2NC(=S)NC(=O)C2C#N)cc1 (stereo not given)
dose: 50.0 mg/kg/injection, vehicle: saline
  T/C: 100 % of control
dose: 100.0 mg/kg/injection, vehicle: saline
  T/C: 97 % of control
dose: 200.0 mg/kg/injection, vehicle: saline
  T/C: 88 % of control

## N=C1C=CC2C(=Nc3ccccc3[N+]2=O)N1CCO (stereo not given)
[1]
  T/C: 91 % of control
[2]
  T/C: 103 % of control
[3]
  T/C: 104 % of control
[4]
  T/C: 100 % of control

## Cn1c(=O)c2nncnc2n(C)c1=O
[2]
  T/C: 94 % of control
[3]
  T/C: 96 % of control
[4]
  T/C: 94 % of control

## Cn1c2ccccc2c2oc(CO)cc(=O)c21
dose: 37.5 mg/kg/injection, vehicle: Klucel (hydroxypropylcellulose) (HPC)
  T/C: 92 % of control
[5]
  T/C: 91 % of control
[6]
  T/C: 91 % of control
[7]
  T/C: 87 % of control
dose: 600.0 mg/kg/injection, vehicle: Klucel (hydroxypropylcellulose) (HPC)
  T/C: 91 % of control

## COc1ccc2c(c1)n([O-])c1ccccc1[n+]2=O
[1]
  T/C: 115 % of control
[2]
  T/C: 117 % of control
[3]
  T/C: 121 % of control

## O=c1nc2[nH]c3c4cccc5cccc(c3nc2c(=O)[nH]1)c54
dose: 12.5 mg/kg/injection, vehicle: Klucel (hydroxypropylcellulose) (HPC)
  T/C: 103 % of control
[8]
  T/C: 99 % of control
[9]
  T/C: 98 % of control
[10]
  T/C: 94 % of control
[11]
  T/C: 103 % of control

## O=c1[nH]cc(F)c(=O)[nH]1
dose: 12.5 mg/kg/injection, vehicle: saline
  T/C: 104 % of control and 122 % of control
dose: 25.0 mg/kg/injection, vehicle: saline
  T/C: 111 % of control and 120 % of control

## CCOC(=O)c1cc(-c2ccccc2)c(=O)c(OC)nc1-c1ccccc1
dose: 18.75 mg/kg/injection, vehicle: saline with Tween-80
  T/C: 87 % of control
dose: 37.5 mg/kg/injection, vehicle: saline with Tween-80
  T/C: 95 % of control
dose: 75.0 mg/kg/injection, vehicle: saline with Tween-80
  T/C: 93 % of control
dose: 150.0 mg/kg/injection, vehicle: saline with Tween-80
  T/C: 90 % of control

## CN(C)CCNC1=CC(=O)c2ccccc2C1=O
[12]
  T/C: 101 % of control
[13]
  T/C: 101 % of control

## O=C(Oc1ccccc1)c1cc(O)c(O)c(O)c1
[1]
  T/C: 97 % of control
[2]
  T/C: 93 % of control
[3]
  T/C: 92 % of control
[4]
  T/C: 88 % of control

## CNCCN=c1ccc2c3c1c(O)c1c(O)ccc(=O)c1c3[nH]n2CCNCCO
dose: 0.75 mg/kg/injection, vehicle: water
  T/C: 156 % of control
dose: 1.5 mg/kg/injection, vehicle: water
  T/C: 162 % of control
dose: 3.0 mg/kg/injection, vehicle: water
  T/C: 204 % of control
[14]
  T/C: 245 % of control
[15]
  T/C: 90 % of control

## COc1ccc(CCN2C(=O)C(=O)N(c3ccc(Cl)c(Cl)c3)C2=O)cc1OC
[9]
  T/C: 99 % of control
[10]
  T/C: 98 % of control
[11]
  T/C: 94 % of control
[16]
  T/C: 89 % of control
dose: 800.0 mg/kg/injection, vehicle: Klucel (hydroxypropylcellulose) (HPC)
  T/C: 93 % of control

## N#Cc1c(-c2ccc(F)cc2)c(-c2ccc(F)cc2)nn(CCO)c1=O
dose: 12.5 mg/kg/injection, vehicle: distilled water + Tween-80
  T/C: 96 % of control and 106 % of control
dose: 25.0 mg/kg/injection, vehicle: distilled water + Tween-80
  T/C: 101 % of control and 102 % of control
[12]
  T/C: 106 % of control and 111 % of control
dose: 72.0 mg/kg/injection, vehicle: distilled water + Tween-80
  T/C: 103 % of control
[13]
  T/C: 120 % of control and 124 % of control
dose: 120.0 mg/kg/injection, vehicle: distilled water + Tween-80
  T/C: 115 % of control
dose: 200.0 mg/kg/injection, vehicle: distilled water + Tween-80
  T/C: 123 % of control
dose: 333.0 mg/kg/injection, vehicle: distilled water + Tween-80
  T/C: 150 % of control
dose: 555.0 mg/kg/injection, vehicle: distilled water + Tween-80
  T/C: 153 % of control

## C=CCOc1cc2c(cc1C(C)c1ccc(OC)cc1)OCO2 (stereo not given)
[8]
  T/C: 98 % of control
[9]
  T/C: 116 % of control
[5]
  T/C: 113 % of control
[10]
  T/C: 115 % of control
dose: 144.0 mg/kg/injection, vehicle: Klucel (hydroxypropylcellulose) (HPC)
  T/C: 118 % of control
[6]
  T/C: 106 % of control
[11]
  T/C: 123 % of control
dose: 240.0 mg/kg/injection, vehicle: Klucel (hydroxypropylcellulose) (HPC)
  T/C: 108 % of control
[7]
  T/C: 124 % of control
[16]
  T/C: 108 % of control

## N[C@@H](Cc1ccc(N(CCCl)CCCl)cc1)C(=O)O
dose: 0.5 mg/kg/injection, vehicle: saline with Tween-80
  T/C: 124 % of control
dose: 2.0 mg/kg/injection, vehicle: saline with Tween-80
  T/C: 188 % of control
dose: 2.0 mg/kg/injection, vehicle: saline
  T/C: 151 % of control
dose: 4.0 mg/kg/injection, vehicle: saline with Tween-80
  T/C: 213 % of control and 221 % of control
dose: 4.0 mg/kg/injection, vehicle: saline
  T/C: 172 % of control
dose: 8.0 mg/kg/injection, vehicle: saline with Tween-80
  T/C: 251 % of control
dose: 8.0 mg/kg/injection, vehicle: saline
  T/C: 251 % of control

## O=C1NC(=O)C23CCCCc4cccc(c42)C(=O)C13 (stereo not given)
dose: 25.0 mg/kg/injection, vehicle: water
  T/C: 103 % of control
[17]
  T/C: 103 % of control
[18]
  T/C: 107 % of control
dose: 200.0 mg/kg/injection, vehicle: water
  T/C: 103 % of control
dose: 400.0 mg/kg/injection, vehicle: water
  T/C: 106 % of control

## S=C1CCCCN1
dose: 6.25 mg/kg/injection, vehicle: distilled water + alcohol
  T/C: 101 % of control
dose: 12.5 mg/kg/injection, vehicle: distilled water + alcohol
  T/C: 99 % of control
dose: 25.0 mg/kg/injection, vehicle: distilled water + alcohol
  T/C: 98 % of control and 103 % of control
dose: 50.0 mg/kg/injection, vehicle: distilled water + alcohol
  T/C: 92 % of control and 94 % of control and 100 % of control
dose: 100.0 mg/kg/injection, vehicle: distilled water + alcohol
  T/C: 88 % of control and 100 % of control (2×)

## COc1ccc2c(c1)-c1nn(CCCN(C)C)c3ccc([N+](=O)[O-])c(c13)N2
[14]
  T/C: 118 % of control
[15]
  T/C: 120 % of control
[17]
  T/C: 156 % of control and 170 % of control
[18]
  T/C: 96 % of control
